Test results: patent publication US7678917B2, “Factor Xa inhibitors” (Hoffman-La Roche Inc., priority 2005, dated 2010)

Molecular target: T1, human factor Xa (Homo sapiens, UniProt P00742)
T1 construct: purchased Enzyme Research Laboratories
Assay: chromogenic peptide substrate assay, inhibition of factor Xa
Format: biochemical
Conditions: human factor Xa 3 nM, chromogenic substrate S-2222, pH 7.8, room temperature; apparent Ki from IC50 by Cheng-Prusoff
Protocol: Factor Xa activity was measured spectrophotometrically in microtiter plates in a final volume of 150 μl using the following conditions: Inhibition of human factor Xa (Enzyme Research Laboratories) was tested at an enzyme concentration of 3 nM using the chromogenic substrate S-2222 (Chromogenix AB, Mölndal, Sweden) at […]. The reaction kinetics of the enzyme and the substrate were linear with both time and the enzyme concentration. The inhibitors were dissolved in DMSO and tested at various concentrations up to 100 μM. The inhibitors were diluted using HNPT buffer consisting of HEPES 100 mM, NaCl 140 mM, PEG 6000 0.1% and Tween 80 0.02%, pH 7.8. The cleavage of S-2222 by human factor Xa was followed at 405 nm for 5 minutes at room temperature. The velocity of the reaction was determined by the autoreader from the slope of the linear regression fit to 7 time points (1 minute). The initial velocity for each inhibitor concentration was determined by the slope of at least 4 time points in the linear phase by a linear regression fit […]. Apparent dissociation constants Ki were calculated according to Cheng and Prusoff [Cheng, Y. C.; Prusoff, W. H. Relationship between the inhibition constant (Ki) and the concentration of the inhibitor that causes 50 percent inhibition (IC50) of an enzyme reaction. Biochem. Pharmacol. 1973, 22, 3099-3108.] based on the IC50 and the respective Km, determined previously (Ki=IC50/(1+S/Km)). […] [Lottenberg R, Hall J A, Blinder M, Binder E P, Jackson C M., The action of thrombin on peptide p-nitroanilide substrates. Substrate selectivity and examination of hydrolysis under different reaction conditions. Biochim Biophys Acta. 1983 Feb. 15; 742(3):539-57]. According to Eadie [Eadie G. S. The inhibition of cholinesterase by physostigmine and prostigmine. J. Biol. Chem. 1942, 146, 85-93.], the Km for S-2222 amounted to 613 μM.

T1 sequence (P00742 235-488 limits assumed): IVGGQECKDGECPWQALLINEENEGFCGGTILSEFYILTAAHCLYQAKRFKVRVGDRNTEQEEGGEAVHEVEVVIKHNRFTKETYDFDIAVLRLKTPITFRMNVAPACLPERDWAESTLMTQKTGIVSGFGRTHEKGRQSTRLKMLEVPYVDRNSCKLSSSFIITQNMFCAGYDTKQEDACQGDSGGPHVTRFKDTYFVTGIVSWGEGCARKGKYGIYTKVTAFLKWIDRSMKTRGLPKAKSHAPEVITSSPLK
T1 sequence (P00742 41-179 partner limits assumed): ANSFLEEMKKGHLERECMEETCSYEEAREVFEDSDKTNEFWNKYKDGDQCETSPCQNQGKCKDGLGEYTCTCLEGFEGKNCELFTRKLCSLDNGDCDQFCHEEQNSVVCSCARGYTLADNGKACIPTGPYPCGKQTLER

Row | Compound | Ki [µM]
1 | CCO[C@H]1C[C@H](C(=O)Nc2ccc(-n3ccccc3=O)cc2F)C[C@@H]1NC(=O)c1ccc(Cl)s1 [Example 13B, 5-chloro-thiophene-2-carboxylic acid {(1S,2S,4R)-2-ethoxy-4-[2-fluoro-4-(2-oxo-2H-pyridin-1-yl)-phenylcarbamoyl]-cyclopentyl}-amide] | 0.006
2 | O=C(N[C@H]1C[C@@H](C(=O)Nc2ccc(-n3ccccc3=O)cc2F)C[C@@H]1O)c1ccc(Cl)s1 [Example 1C, 5-chloro-thiophene-2-carboxylic acid {(1S,2S,4R)-4-[2-fluoro-4-(2-oxo-2H-pyridin-1-yl)-phenylcarbamoyl]-2-hydroxy-cyclopentyl}-amide] | 0.015
3 | O=C(N[C@H]1C[C@@H](C(=O)Nc2ccc(-n3ccncc3=O)cc2F)C[C@@H]1O)c1ccc(Cl)s1 [Example 5, 5-chloro-thiophene-2-carboxylic acid {(1S,2S,4R)-4-[2-fluoro-4-(2-oxo-2H-pyrazin-1-yl)-phenylcarbamoyl]-2-hydroxy-cyclopentyl}-amide] | 0.018
4 | O=C(NC[C@H]1C[C@H](C(=O)Nc2ccc(-n3ccccc3=O)cc2F)C[C@@H]1O)c1ccc(Cl)s1 (racemic) [Example 15C] | 0.03
